According to patent US8354414B2, “Substituted bicyclic pyrimidines” (Cephalon, Inc, priority 2006, dated 2013):

Key:
[1] = target: T1, CDK5/GST-p25 (Homo sapiens, UniProt Q00535); test: Inhibition of CDK5/GST-p25 kinase activity (ELISA with time-resolved fluorescence readout); assay type: biochemical
T1 construct: The final construct, encoding for full-length human CDK5; made in house; host or cells: Sf21 insect cells (baculovirus co-infection)
Procedure, shortened: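 Sf21-coexpressed full-length human CDK5 with GST-p25 (p35 aa 108-307), glutathione-purified, at 2 ng/ml was reacted for 20 min at 37 °C on plate-coated GST-Rb(773-928). Buffer was 20 mM HEPES pH 7.2, 10 µM ATP, 10 mM MgCl2 and 2.5% DMSO. Phospho-Rb Ser-780 was detected by Eu-labelled antibody TRF, and IC50 curves were fitted.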

[2] = target: T2, His6-GSK-3β (Homo sapiens, UniProt P49841); test: Inhibition of His6-GSK-3β kinase activity (ELISA-based format, time-resolved fluorescence readout); assay type: biochemical; conditions: class symbols; read-out: GSK3β IC50
T2 construct: made in house; host or cells: Sf21 insect cells (baculovirus)
T2 sequence (P49841 2-419): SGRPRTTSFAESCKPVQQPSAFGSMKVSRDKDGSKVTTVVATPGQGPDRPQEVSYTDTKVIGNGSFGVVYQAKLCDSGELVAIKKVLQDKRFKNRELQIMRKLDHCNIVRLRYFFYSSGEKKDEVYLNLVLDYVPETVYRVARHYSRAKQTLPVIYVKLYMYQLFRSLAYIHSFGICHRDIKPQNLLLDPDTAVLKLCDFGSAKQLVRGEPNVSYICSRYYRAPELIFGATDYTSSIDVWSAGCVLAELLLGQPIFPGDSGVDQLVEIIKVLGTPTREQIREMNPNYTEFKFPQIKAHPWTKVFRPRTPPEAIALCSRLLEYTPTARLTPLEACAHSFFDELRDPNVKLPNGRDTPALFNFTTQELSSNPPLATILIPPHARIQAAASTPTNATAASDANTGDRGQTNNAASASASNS
Procedure, shortened: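 N-terminal His6-tagged full-length human GSK-3β (aa 2-419) expressed in Sf21 cells, 200 ng/ml, phosphorylating plate-coated GST-Rb with 20 μM ATP in pH 7.2 HEPES buffer, 30 min at 37° C. Phospho-Rb (Ser-780) detected by antibody plus Eu-labelled secondary, time-resolved fluorescence; IC50 from curves.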

T1 sequence (Q00535 whole entry): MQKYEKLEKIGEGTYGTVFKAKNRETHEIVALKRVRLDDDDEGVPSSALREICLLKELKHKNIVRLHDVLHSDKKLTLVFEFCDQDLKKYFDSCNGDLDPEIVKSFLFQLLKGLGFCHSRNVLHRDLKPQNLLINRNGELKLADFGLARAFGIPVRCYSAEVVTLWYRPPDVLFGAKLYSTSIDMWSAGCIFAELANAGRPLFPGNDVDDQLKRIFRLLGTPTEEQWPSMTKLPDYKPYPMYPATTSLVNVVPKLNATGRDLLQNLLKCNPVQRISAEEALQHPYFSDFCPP
T1 sequence (Q15078 108-307 partner limits assumed): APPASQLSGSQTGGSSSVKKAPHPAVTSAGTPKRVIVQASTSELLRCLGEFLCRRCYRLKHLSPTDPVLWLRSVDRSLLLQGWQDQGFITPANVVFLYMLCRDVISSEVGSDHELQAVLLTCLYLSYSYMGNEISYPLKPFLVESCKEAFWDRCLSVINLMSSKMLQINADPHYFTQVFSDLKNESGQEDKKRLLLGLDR

| Compound | melting point | IC50 ([1]; class symbols) | IC50 [2] | IC50 ([1]; numeric bounds) | inhibition at 10 µM [1] |
| --- | --- | --- | --- | --- | --- |
| Cn1cc2c(C3C(=O)Nc4ccc(Br)cc43)ncnc2n1 (stereo not drawn) [Example 82, 5-Bromo-3-(2-methyl-2H-pyrazolo[3,4-d]pyrimidin-4-yl)-1,3-dihydro-indol-2-one] | 360 to 365 °C | < 0.3 µM | 0.3 to 3 µM |  |  |
| N#Cc1cccc2c1NC(=O)C2c1ncnc2c1cnn2C1CCCC1 (stereo not drawn) [Example 64, 3-(1-Cyclopentyl-1H-pyrazolo [3,4-d]pyrimidin-4-yl)-2-oxo-2,3-dihydro-1H-indole-7-carbonitrile] | 327 to 332 °C | > 10 µM | > 10 µM |  |  |
| O=C1Nc2ccccc2C1c1nc(NCCCN2CCOCC2)nc2nn(C3CCCC3)cc12 (stereo not drawn) [Example 157, 3-[2-cyclopentyl-6-(3-morpholin-4-yl-propylamino)-2H-pyrazolo[3,4-d]pyrimidin-4-yl]-1,3-dihydro-indol-2-one] | 242 to 245 °C |  | 0.3 to 3 µM | > 3 µM |  |
| CCNc1nc(C2C(=O)Nc3ccc(C#N)cc32)c2cn(C3CCCC3)nc2n1 (stereo not drawn) [Example 166, 3-(2-cyclopentyl-6-ethylamino-2H-pyrazolo[3,4-d]pyrimidin-4-yl)-2-oxo-2,3-dihydro-1H-indole-5-carbonitrile] | 373 °C (dec.) |  | < 0.3 µM |  | 41% |
| N#Cc1ccc2c(c1)C(c1nc(OCCc3cccnc3)nc3nn(C4CCCC4)cc13)C(=O)N2 (stereo not drawn) [Example 164, 3-[2-cyclopentyl-6-(2-pyridin-3-yl-ethoxy)-2H-pyrazolo [3,4-d]pyrimidin-4-yl]-2-oxo-2,3-dihydro-1H-indole-5-carbonitrile] | 302 to 304 °C | > 10 µM | < 0.3 µM |  |  |
| CCCn1cc2c(C3C(=O)Nc4ccc(Br)cc43)ncnc2n1 (stereo not drawn) [Example 97, 5-Bromo-3-(2-propyl-2H-pyrazolo[3,4-d]pyrimidin-4-yl)-1,3-dihydro-indol-2-one] | > 300 °C | < 0.3 µM | < 0.3 µM |  |  |
| O=C1Nc2cc(F)ccc2C1c1ncnc2c1cnn2C1CCCCC1 (stereo not drawn) [Example 73, 3-(1-Cyclohexyl-1H-pyrazolo[3,4-d]pyrimidin-4-yl)-6-fluoro-1,3-dihydro-indol-2-one] | 277 to 280 °C | > 10 µM | > 10 µM |  |  |
| O=c1[nH]c2ccccc2n1-c1ncnc2nn(C3CCCC3)cc12 [Example 44, 1-(2-Cyclopentyl-2H-pyrazolo[3,4-d]pyrimidin-4-yl)-1,3-dihydro-benzoimidazol-2-one] | 236 to 240 °C | > 10 µM | > 10 µM |  |  |
| N#Cc1ccc2c(c1)NC(=O)C2c1ncnc2nn(C3CCCC3)cc12 (stereo not drawn) [Example 38, 3-(2-Cyclopentyl-2H-pyrazolo [3,4-d]pyrimidin-4-yl)-2-oxo-2,3-dihydro-1H-indole-6-carbonitrile] | 340 to 344 °C | > 10 µM | > 10 µM |  |  |
| O=C1Nc2ccc(C(F)(F)F)cc2C1c1ncnc2nn(C3CCCCC3)cc12 (stereo not drawn) [Example 53, 3-(2-Cyclohexyl-2H-pyrazolo [3,4-d]pyrimidin-4-yl)-5-trifluoromethyl-1,3-dihydro-indol-2-one] | > 300 °C | > 10 µM | 0.3 to 3 µM |  |  |
| CNc1nc(C2C(=O)Nc3ccccc32)c2cn(C3CCCC3)nc2n1 (stereo not drawn) [Example 154, 3-(2-cyclopentyl-6-methylamino-2H-pyrazolo [3,4-d]pyrimidin-4-yl)-1,3-dihydro-indol-2-one] | > 300 °C |  | 0.3 to 3 µM |  | 68% |
| N#Cc1cccc2c1NC(=O)C2c1ncnc2nn(C3CCCC3)cc12 (stereo not drawn) [Example 39, 3-(2-Cyclopentyl-2H-pyrazolo[3,4-d]pyrimidin-4-yl)-2-oxo-2,3-dihydro-1H-indole-7-carbonitrile] | > 380 °C | < 0.3 µM | 0.3 to 3 µM |  |  |

Now from value to molecule:

| melting point | IC50 ([1]; class symbols) | IC50 [2] | IC50 ([1]; numeric bounds) | inhibition at 10 µM [1] | Compound |
| --- | --- | --- | --- | --- | --- |
| 199 °C (dec.) | < 0.3 µM | < 0.3 µM |  |  | CCCCCn1cc2c(C3C(=O)Nc4ccc(C#N)cc43)nc(NC(C)C)nc2n1 (stereo not drawn) [Example 295, 3-(6-Isopropylamino-2-pentyl-2H-pyrazolo[3,4-d]pyrimidin-4-yl)-2-oxo-2,3-dihydro-1H-indole-5-carbonitrile] |
| 276 to 278 °C | < 0.3 µM | < 0.3 µM |  |  | CCOCCn1cc2c(C3C(=O)Nc4ccc(Br)cc43)nc(NCCN3CCOCC3)nc2n1 (stereo not drawn) [Example 240, 5-Bromo-3-[2-(2-ethoxy-ethyl)-6-(2-morpholin-4-yl-ethylamino)-2H-pyrazolo [3,4-d]pyrimidin-4-yl]-1,3-dihydro-indol-2-one] |
| > 300 °C | < 0.3 µM | < 0.3 µM |  |  | COCCNc1nc(C2C(=O)Nc3ccc(Br)cc32)c2cn(CCOC)nc2n1 (stereo not drawn) [Example 235, 5-Bromo-3-[2-(2-methoxy-ethyl)-6-(2-methoxy-ethylamino)-2H-pyrazolo [3,4-d]pyrimidin-4-yl]-1,3-dihydro-indol-2-one] |
| 250.5 to 254 °C | < 0.3 µM | < 0.3 µM |  |  | CC(C)Cn1cc2c(C3C(=O)Nc4ccc(Br)cc43)nc(NCCCN(C)C)nc2n1 (stereo not drawn) [Example 269, 5-Bromo-3-[6-(3-dimethylamino-propylamino)-2-isobutyl-2H-pyrazolo [3,4-d]pyrimidin-4-yl]-1,3-dihydro-indol-2-one] |
| 243 to 243.5 °C | < 0.3 µM | < 0.3 µM |  |  | N#Cc1ccc2c(c1)C(c1nc(N(CCO)CCO)nc3nn(C4CCCC4)cc13)C(=O)N2 (stereo not drawn) [Example 168, 3-{6-[bis(2-hydroxyethyl)amino]-2-cyclopentyl-2H-pyrazolo[3,4-d]pyrimidin-4-yl}-2-oxo-2,3-dihydro-1H-indole-5-carbonitrile] |
| 263 to 265.5 °C | < 0.3 µM | < 0.3 µM |  |  | CC(C)Cn1cc2c(C3C(=O)Nc4ccc(Cl)cc43)nc(NCCCN3CCOCC3)nc2n1 (stereo not drawn) [Example 271, 5-Chloro-3-[2-isobutyl-6-(3-morpholin-4-yl-propylamino)-2H-pyrazolo[3,4-d]pyrimidin-4-yl]-1,3-dihydro-indol-2-one] |
| > 300 °C | < 0.3 µM | < 0.3 µM |  |  | COCCn1cc2c(C3C(=O)Nc4ccc(Br)cc43)nc(NC[C@H](C)O)nc2n1 (stereo partly drawn) [Example 230, 5-Bromo-3-[6((S)-2-hydroxy-propylamino)-2-(2-methoxy-ethyl)-2H-pyrazolo [3,4-d]pyrimidin-4-yl]-1,3-dihydro-indol-2-one] |
| 246 to 248 °C |  | 0.3 to 3 µM |  | 43% | O=C1Nc2ccccc2C1c1nc(NCCc2ccccn2)nc2nn(C3CCCC3)cc12 (stereo not drawn) [Example 242, 3-[2-Cyclopentyl-6-(2-pyridin-2-yl-ethylamino)-2H-pyrazolo[3,4-d]pyrimidin-4-yl]-1,3-dihydro-indol-2-one] |
| 300 to 301 °C | < 0.3 µM | < 0.3 µM |  |  | COCCn1cc2c(C3C(=O)Nc4ccc(Br)cc43)nc(NCc3cccnc3)nc2n1 (stereo not drawn) [Example 232, 5-Bromo-3-{2-(2-methoxy-ethyl)-6-[(pyridin-3-ylmethyl)-amino]-2H-pyrazolo[3,4-d]pyrimidin-4-yl}-1,3-dihydro-indol-2-one] |
| 254 °C (dec.) |  | 0.3 to 3 µM | > 3 µM |  | CCCCCn1cc2c(C3C(=O)Nc4ccc(C#N)cc43)nc(Cl)nc2n1 (stereo not drawn) [Example 291, 3-(6-Chloro-2-pentyl-2H-pyrazolo [3,4-d]pyrimidin-4-yl)-2-oxo-2,3-dihydro-1H-indole-5-carbonitrile] |
| > 300 °C | < 0.3 µM | < 0.3 µM |  |  | COCCn1cc2c(C3C(=O)Nc4ccc(Br)cc43)nc(NCCN3CCOCC3)nc2n1 (stereo not drawn) [Example 234, 5-Bromo-3-[2-(2-methoxy-ethyl)-6-(2-morpholin-4-yl-ethylamino)-2H-pyrazolo[3,4-d]pyrimidin-4-yl]-1,3-dihydro-indol-2-one] |
| 192 °C (dec.) | 0.3 to 3 µM | < 0.3 µM |  |  | CCCCCn1cc2c(C3C(=O)Nc4ccc(C(F)(F)F)cc43)nc(NCCN)nc2n1 (stereo not drawn) [Example 288, 3-[6-(2-Amino-ethylamino)-2-pentyl-2H-pyrazolo [3,4-d]pyrimidin-4-yl]-5-trifluoromethyl-1,3-dihydro-indol-2-one] |
| 299 to 301 °C | > 10 µM | < 0.3 µM |  |  | CC(C)Nc1nc(C2C(=O)Nc3ccc(C(F)(F)F)cc32)c2cn(C3CCCC3)nc2n1 (stereo not drawn) [Example 250, 3-(2-Cyclopentyl-6-isopropylamino-2H-pyrazolo[3,4-d]pyrimidin-4-yl)-5-trifluoromethyl-1,3-dihydro-indol-2-one] |
| 270 to 274 °C | < 0.3 µM | < 0.3 µM |  |  | CCCn1cc2c(C3C(=O)Nc4ccc(Br)cc43)nc(NCCN(C)C)nc2n1 (stereo not drawn) [Example 197, 5-Bromo-3-[6-(2-dimethylamino-ethylamino)-2-propyl-2H-pyrazolo[3,4-d]pyrimidin-4-yl]-1,3-dihydro-indol-2-one] |
| 230 °C (dec.) |  | < 0.3 µM |  | 73% | CCCCCn1cc2c(C3C(=O)Nc4ccc(C(F)(F)F)cc43)nc(NCCCN3CCOCC3)nc2n1 (stereo not drawn) [Example 290, 3-[6-(3-Morpholin-4-yl-propylamino)-2-pentyl-2H-pyrazolo[3,4-d]pyrimidin-4-yl]-5-trifluoromethyl-1,3-dihydro-indol-2-one] |
